# Results taken from PubChem BioAssay AID2060617 (Molecular Pharmacology Branch, DTP, NCI, 2025).
# Several values for one entry are separate records, joined by “and”; a condition that tells them apart may be missing. Identical values can stand only once.
# Tested on: 485368-065-R4-J2-PDC spheroids with HUVEC/MSC, viability
# Experiment: Anticancer human tumor 485368-065-R4-J2-PDC patient-derived pancreatic carcinoma cell line growth inhibition [CLK]
# Conditions: for viability, T/C: stronger effect = lower value
# Procedure, shortened: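 Patient-derived tumor cells grown as complex spheroids with HUVEC endothelial cells and mesenchymal stem cells, treated with drug combinations. Concentrations descend in half-log steps from near clinical Cmax, or from 10 microM if Cmax unknown.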
# [1] = curve of first compound, second compound 0.0316 µM
# [2] = curve of first compound, second compound 0.1 µM
# [3] = curve of first compound, second compound 0.316 µM
# [4] = curve of first compound, second compound 1 µM
# [5] = curve of first compound, second compound 3.16 µM
# [6] = curve of first compound, second compound 10 µM
# [7] = second compound 0.0316 µM, first compound 0.00316 µM
# [8] = second compound 0.0316 µM, first compound 0.01 µM
# [9] = second compound 0.0316 µM, first compound 0.0316 µM
# [10] = second compound 0.0316 µM, first compound 0.1 µM
# [11] = second compound 0.0316 µM, first compound 0.316 µM
# [12] = second compound 0.0316 µM, first compound 1 µM
# [13] = second compound 0.1 µM, first compound 0.00316 µM
# [14] = second compound 0.1 µM, first compound 0.01 µM
# [15] = second compound 0.1 µM, first compound 0.0316 µM
# [16] = second compound 0.1 µM, first compound 0.1 µM
# [17] = second compound 0.1 µM, first compound 0.316 µM
# [18] = second compound 0.1 µM, first compound 1 µM
# [19] = second compound 0.316 µM, first compound 0.00316 µM
# [20] = second compound 0.316 µM, first compound 0.01 µM
# [21] = second compound 0.316 µM, first compound 0.0316 µM
# [22] = second compound 0.316 µM, first compound 0.1 µM
# [23] = second compound 0.316 µM, first compound 0.316 µM
# [24] = second compound 0.316 µM, first compound 1 µM
# [25] = second compound 1 µM, first compound 0.00316 µM
# [26] = second compound 1 µM, first compound 0.01 µM
# [27] = second compound 1 µM, first compound 0.0316 µM
# [28] = second compound 1 µM, first compound 0.1 µM
# [29] = second compound 1 µM, first compound 0.316 µM
# [30] = second compound 1 µM, first compound 1 µM
# [31] = second compound 3.16 µM, first compound 0.00316 µM
# [32] = second compound 3.16 µM, first compound 0.01 µM
# [33] = second compound 3.16 µM, first compound 0.0316 µM
# [34] = second compound 3.16 µM, first compound 0.1 µM
# [35] = second compound 3.16 µM, first compound 0.316 µM
# [36] = second compound 3.16 µM, first compound 1 µM
# [37] = second compound 10 µM, first compound 0.00316 µM
# [38] = second compound 10 µM, first compound 0.01 µM
# [39] = second compound 10 µM, first compound 0.0316 µM
# [40] = second compound 10 µM, first compound 0.1 µM
# [41] = second compound 10 µM, first compound 0.316 µM
# [42] = second compound 10 µM, first compound 1 µM
# [43] = second compound 0.0316 µM, first compound 3.16 µM
# [44] = second compound 0.0316 µM, first compound 10 µM
# [45] = second compound 0.1 µM, first compound 3.16 µM
# [46] = second compound 0.1 µM, first compound 10 µM
# [47] = second compound 0.316 µM, first compound 3.16 µM
# [48] = second compound 0.316 µM, first compound 10 µM
# [49] = second compound 1 µM, first compound 3.16 µM
# [50] = second compound 1 µM, first compound 10 µM
# [51] = second compound 3.16 µM, first compound 3.16 µM
# [52] = second compound 3.16 µM, first compound 10 µM
# [53] = second compound 10 µM, first compound 3.16 µM
# [54] = second compound 10 µM, first compound 10 µM
# 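Also: spheroids exposed to compounds for seven days.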
# 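For viability, T/C in this document: 100% = DMSO vehicle control wells.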
smiles,measurement,setting,value
CCc1c2c(nc3ccc(O)cc13)-c1cc3c(c(=O)n1C2)COC(=O)[C@]3(O)CC + CN1CCN(c2cc(C(=O)Nc3cc4cc(-c5cnn(C)c5)ccc4cn3)ccn2)CC1,IC50,[1],< 3.16 nM
same,IC50,[2],< 3.16 nM
same,IC50,[3],< 3.16 nM
same,IC50,[4],< 3.16 nM
same,IC50,[5],< 3.16 nM
same,IC50,[6],< 3.16 nM
same,"viability, T/C",[7],38.6%
same,"viability, T/C",[8],20%
same,"viability, T/C",[9],11.3%
same,"viability, T/C",[10],7.09%
same,"viability, T/C",[11],8.74%
same,"viability, T/C",[12],11.7%
same,"viability, T/C",[13],33.3%
same,"viability, T/C",[14],16.6%
same,"viability, T/C",[15],9.62%
same,"viability, T/C",[16],6.3%
same,"viability, T/C",[17],10.2%
same,"viability, T/C",[18],15.5%
same,"viability, T/C",[19],26.4%
same,"viability, T/C",[20],12.7%
same,"viability, T/C",[21],8.57%
same,"viability, T/C",[22],8%
same,"viability, T/C",[23],11.9%
same,"viability, T/C",[24],13.1%
same,"viability, T/C",[25],2.16%
same,"viability, T/C",[26],3.01%
same,"viability, T/C",[27],7.32%
same,"viability, T/C",[28],8.2%
same,"viability, T/C",[29],13.4%
same,"viability, T/C",[30],15.4%
same,"viability, T/C",[31],3.22%
same,"viability, T/C",[32],5.26%
same,"viability, T/C",[33],11.6%
same,"viability, T/C",[34],11.3%
same,"viability, T/C",[35],14.1%
same,"viability, T/C",[36],13%
same,"viability, T/C",[37],2.58%
same,"viability, T/C",[38],4.97%
same,"viability, T/C",[39],9.49%
same,"viability, T/C",[40],8.95%
same,"viability, T/C",[41],11.7%
same,"viability, T/C",[42],14%
C#Cc1c(F)ccc2cc(O)cc(-c3ncc4c(N5CC6CCC(C5)N6)nc(OCC56CCCN5CC(F)C6)nc4c3F)c12 (stereo unspecified) + CNC(=O)c1ccc(Nc2nc(OC3CCCC3)c3c(-c4ccc5nc(C)oc5c4)c[nH]c3n2)c(OC)c1,IC50,[1],> 10000 nM
same,IC50,[2],> 10000 nM
same,IC50,[3],> 10000 nM
same,IC50,[4],> 10000 nM
same,IC50,[5],6950 nM
same,IC50,[6],5790 nM
same,"viability, T/C",[9],103%
same,"viability, T/C",[10],115%
same,"viability, T/C",[11],90.3%
same,"viability, T/C",[12],102%
same,"viability, T/C",[43],104%
same,"viability, T/C",[44],108%
same,"viability, T/C",[15],96.1%
same,"viability, T/C",[16],99.8%
same,"viability, T/C",[17],108%
same,"viability, T/C",[18],98.4%
same,"viability, T/C",[45],103%
same,"viability, T/C",[46],108%
same,"viability, T/C",[21],91.4%
same,"viability, T/C",[22],86.5%
same,"viability, T/C",[23],96.7%
same,"viability, T/C",[24],87%
same,"viability, T/C",[47],75.8%
same,"viability, T/C",[48],70.3%
same,"viability, T/C",[27],82.8%
same,"viability, T/C",[28],79.4%
same,"viability, T/C",[29],80.3%
same,"viability, T/C",[30],71.5%
same,"viability, T/C",[49],68.8%
same,"viability, T/C",[50],52.3%
same,"viability, T/C",[33],77.5%
same,"viability, T/C",[34],72.5%
same,"viability, T/C",[35],77.1%
same,"viability, T/C",[36],73.2%
same,"viability, T/C",[51],59.4%
same,"viability, T/C",[52],45%
same,"viability, T/C",[39],74.7%
same,"viability, T/C",[40],73.1%
same,"viability, T/C",[41],68.5%
same,"viability, T/C",[42],67.7%
same,"viability, T/C",[53],57%
same,"viability, T/C",[54],43.1%
Cn1ncnc1[C@H]1c2n[nH]c(=O)c3cc(F)cc(c23)N[C@@H]1c1ccc(F)cc1 + CNC(=O)c1ccc(Nc2nc(OC3CCCC3)c3c(-c4ccc5nc(C)oc5c4)c[nH]c3n2)c(OC)c1,IC50,[1],> 100 nM
same,IC50,[2],> 100 nM
same,IC50,[3],> 100 nM
same,IC50,[4],> 100 nM
same,IC50,[5],> 100 nM
same,IC50,[6],> 100 nM
same,"viability, T/C","second compound 0.0316 µM, first compound 0.000316 µM",91.9%
same,"viability, T/C","second compound 0.0316 µM, first compound 0.001 µM",94.1%
same,"viability, T/C",[7],97.4%
same,"viability, T/C",[8],105%
same,"viability, T/C",[9],98%
same,"viability, T/C",[10],90.8%
same,"viability, T/C","second compound 0.1 µM, first compound 0.000316 µM",89.3%
same,"viability, T/C","second compound 0.1 µM, first compound 0.001 µM",97.8%
same,"viability, T/C",[13],99%
same,"viability, T/C",[14],105%
same,"viability, T/C",[15],89.7%
same,"viability, T/C",[16],82.4%
same,"viability, T/C","second compound 0.316 µM, first compound 0.000316 µM",79.6%
same,"viability, T/C","second compound 0.316 µM, first compound 0.001 µM",79.5%
same,"viability, T/C",[19],81.2%
same,"viability, T/C",[20],77.9%
same,"viability, T/C",[21],89%
same,"viability, T/C",[22],73%
same,"viability, T/C","second compound 1 µM, first compound 0.000316 µM",74.7%
same,"viability, T/C","second compound 1 µM, first compound 0.001 µM",75.8%
same,"viability, T/C",[25],79%
same,"viability, T/C",[26],66.6%
same,"viability, T/C",[27],77%
same,"viability, T/C",[28],63.3%
same,"viability, T/C","second compound 3.16 µM, first compound 0.000316 µM",78.4%
same,"viability, T/C","second compound 3.16 µM, first compound 0.001 µM",74.3%
same,"viability, T/C",[31],69.8%
same,"viability, T/C",[32],67.4%
same,"viability, T/C",[33],59.1%
same,"viability, T/C",[34],66%
same,"viability, T/C","second compound 10 µM, first compound 0.000316 µM",70%
same,"viability, T/C","second compound 10 µM, first compound 0.001 µM",69.7%
same,"viability, T/C",[37],60.8%
same,"viability, T/C",[38],62.9%
same,"viability, T/C",[39],64.2%
same,"viability, T/C",[40],57.9%
CC(=O)O[C@H]1C(=O)[C@@]2(C)[C@H]([C@H](OC(=O)c3ccccc3)[C@]3(O)C[C@H](OC(=O)[C@H](O)[C@@H](NC(=O)c4ccccc4)c4ccccc4)C(C)=C1C3(C)C)[C@]1(OC(C)=O)CO[C@@H]1C[C@@H]2O,"viability, T/C",compound 0.0316 µM,58.2% and 59.8%
same,"viability, T/C",compound 0.1 µM,50.1% and 56.1%
same,"viability, T/C",compound 0.316 µM,49% and 52.2%
same,"viability, T/C",compound 1 µM,48.5% and 43.6%
same,"viability, T/C",compound 3.16 µM,49.9% and 52.5%
same,"viability, T/C",compound 10 µM,48.8% and 65.5%
CCc1c2c(nc3ccc(O)cc13)-c1cc3c(c(=O)n1C2)COC(=O)[C@]3(O)CC,"viability, T/C",compound 0.00316 µM,46.5% and 55.5%
same,"viability, T/C",compound 0.01 µM,22.5% and 24.9%
same,"viability, T/C",compound 0.0316 µM,10.9% and 13.2%
same,"viability, T/C",compound 0.1 µM,7.63% and 7.75%
same,"viability, T/C",compound 0.316 µM,7.05% and 6.79%
same,"viability, T/C",compound 1 µM,14.8% and 15.6%
same,IC50,curve of compound,< 3.16 nM and 3.83 nM
C=C(F)C(=O)N1CCN(c2nc(OCC3CCCN3C)nc3c2CCN(c2cccc4cccc(Cl)c24)C3)CC1CC#N (stereo unspecified) + CN1CCN(c2cc(C(=O)Nc3cc4cc(-c5cnn(C)c5)ccc4cn3)ccn2)CC1,IC50,[1],> 10000 nM
same,IC50,[2],> 10000 nM
same,IC50,[3],> 10000 nM
same,IC50,[4],< 31.6 nM
same,IC50,[5],< 31.6 nM
same,IC50,[6],< 31.6 nM
same,"viability, T/C",[9],114%
same,"viability, T/C",[10],116%
same,"viability, T/C",[11],108%
same,"viability, T/C",[12],114%
same,"viability, T/C",[43],105%
same,"viability, T/C",[44],110%
same,"viability, T/C",[15],109%
same,"viability, T/C",[16],105%
same,"viability, T/C",[17],106%
same,"viability, T/C",[18],109%
same,"viability, T/C",[45],105%
same,"viability, T/C",[46],95.3%
same,"viability, T/C",[21],89.7%
same,"viability, T/C",[22],85.6%
same,"viability, T/C",[23],89.4%
same,"viability, T/C",[24],77.8%
same,"viability, T/C",[47],77.4%
same,"viability, T/C",[48],57.4%
same,"viability, T/C",[27],1.02%
same,"viability, T/C",[28],1.73%
same,"viability, T/C",[29],2.07%
same,"viability, T/C",[30],1.58%
same,"viability, T/C",[49],1.92%
same,"viability, T/C",[50],3.55%
same,"viability, T/C",[33],1.58%
same,"viability, T/C",[34],1.31%
same,"viability, T/C",[35],1.13%
same,"viability, T/C",[36],2.84%
same,"viability, T/C",[51],1.64%
same,"viability, T/C",[52],2%
same,"viability, T/C",[39],1.69%
same,"viability, T/C",[40],2.28%
same,"viability, T/C",[41],1.56%
same,"viability, T/C",[42],2.01%
same,"viability, T/C",[53],3.1%
same,"viability, T/C",[54],1.56%
